Assay results as given in paper PMC12337082 (Journal of Biochemical and Molecular Toxicology, 2025).

Tests used:
Format in all cases: cell-based, human
[1] = test system: MDA‐MB‐231; assay: MTT cell viability assay, MDA‐MB‐231; conditions: for IC50: MTT
Description: MCF‐7, MDA‐MB‐231, and L‐929 mouse fibroblast cell lines were obtained from the American Type Culture Collection (ATCC, Manassas, Virginia, USA). MCF‐7 is a hormone‐responsive, differentiated mammary epithelium cell line with an ER+, PR+, and HER2‐ pattern (ATCC, HTB‐22). MDA‐MB‐231 is a triple‐negative differentiated mammary epithelium cell line (ATCC, HTB‐26). The L‐929 mouse fibroblast cell line is derived from the normal subcutaneous connective tissue of a mouse and is commonly used in cytotoxicity assays (ATCC, CCL‐1). All cell lines were cultured in DMEM medium (Dulbecco's Modified Eagle Medium, Gibco), supplemented with 10% fetal bovine serum (Gibco), 1% glutamine, and penicillin/streptomycin (Gibco) in a humidified atmosphere containing 5% CO2 at 37°C. Cell viability was tested using Trypan blue staining.
The MTT [3‐(4,5‐dimethylthiazol‐2‐yl)−2,5‐diphenyltetrazolium bromide] assay is a colorimetric assay for determining cell metabolic activity. In the MTT assay, the yellow dye MTT that dissolves in water is changed by mitochondrial reductase into a purple formazan that is non‐soluble. The water‐insoluble formazan produced is solubilized in a solubilization buffer, and absorbances are detected.
In 96‐well plates, the cells were cultivated at a density of 5 × 10^3 cells/well using 100 µL medium. […] 10 μL of the MTT labeling reagent (final concentration 0.5 mg/mL) were added to each well at the end of the incubation periods, and the wells were incubated for an additional 4 h. Next, each well received 100 μL of solubilization buffer (10% SDS in 0.01 M HCl) and was overnight incubated, and the absorbance of formazan products was evaluated at 550 nm using a multi‐mode microplate reader (Synergy H1, Biotech Instruments Inc., Vermont, USA). The results were normalized relative to the absorbances of calculated percent concentrations of DMSO. All tests involved three replicates with three independent experiments.
All statistical evaluations, including t‐tests and IC50 values, were calculated using the GraphPad Prism software tool (v6.0, GraphPad Software Inc., San Diego, USA). Statistical significance was defined as p ˂ 0.05 (*p < 0.05, **p < 0.01, ***p < 0.001, ****p < 0.0001).

[2] = test system: COX‐2; assay: Western blot COX‐2 protein expression, MDA‐MB‐231; conditions: 24 h
Procedure: (§1) Total protein levels were measured using the Take3 Multi‐Volume Plate (Synergy H1, BioTek Instruments Inc., Vermont, USA). In accordance with the classical protocol, transferred proteins were exposed to the following primary antibodies: Beta‐actin (NB600‐501, Novus Biologicals), Bax (SPM336, NBP2‐32809), Bcl‐2 (100/D5, NBP2‐15200), cleaved PARP (194C1439, NBP2‐27335), and COX‐2 (D‐12:sc‐166475, Santa Cruz). The bands were visualized with chemiluminescent HRP substrates (Western Bright ECL‐Advansta, K‐12045‐050). Using a chemiluminescence imaging system (Celvin S, BioStep), the relative quantification was done based on the level of β‐actin proteins.

[3] = test system: COX‐2; assay: Western blot COX‐2 protein expression, MCF‐7; conditions: 24 h
Procedure: as §1

[4] = test system: MCF‐7; assay: Mitochondrial membrane potential (JC‐1) apoptosis assay, MCF‐7; conditions: MCF‐7, 50 μM, 24 h, MMP assay
Procedure: Apoptosis was also investigated by evaluating mitochondrial membrane potential changes (MMP assay). MCF‐7, MDA‐MB‐231, and L‐929 cells were stained with JC‐1 dye according to the manufacturer's protocols (JC‐1 MMP Assay Kit, KA1324, Abnova). The apoptotic to healthy cell ratio was calculated using absorbances collected from two different fluorescence channels (535/595 for healthy cells, 485/535 for apoptotic cells) (Synergy H1, Biotech Instruments Inc., Vermont, USA).

CCc1cccc2c3c([nH]c12)C(CC)(CC(=O)N/N=C/c1ccc(OC)cc1)OCC3 (racemic) [SGK 206, 2‐(1,8‐Diethyl‐1,3,4,9‐tetrahydropyrano[3,4‐b]indole‐1‐yl) acetic acid[(4‐methoxyphenyl)methylene]acetohydrazide]
IC50 ([1]; Homo sapiens, MDA-MB-231, 24 h, MDA‐MB‐231, 24 h): 43 µM
IC50 ([1]; Homo sapiens, MDA-MB-231, 48 h, MDA‐MB‐231, 48 h): 38 ± 2.3 µM
IC50 ([1]; Homo sapiens, MDA-MB-231, 72 h, MDA‐MB‐231, 72 h): 36 ± 3.19 µM
IC50 ([1]; MDA‐MB‐231, 24 h): 43.2 ± 1.94 µM
Selectivity index (SI) ([1]; MDA‐MB‐231 in comparison to L‐929, 24 h): 1.65
Selectivity index (SI) ([1]; MDA‐MB‐231 in comparison to L‐929, 48 h): 1.26
Selectivity index (SI) ([1]; MDA‐MB‐231 in comparison to L‐929, 72 h): 1.38
Decrease in COX‐2 protein expression compared to the control group ([2]; MDA‐MB‐231, 50 µM): 16%
Decrease in COX‐2 protein expression compared to the control group ([2]; MDA‐MB‐231, 75 µM): 37%
Decrease in COX‐2 protein expression compared to the control group ([3]; MCF‐7, 50 µM): 30%
Decrease in COX‐2 protein expression compared to the control group ([3]; MCF‐7, 75 µM): 41%
Increase in apoptosis compared to the control group [4]: 48%
